Active and inactive are the calls of the source. How the calls were made is not given here.
Tested on: CCRIS mutagenicity, Ames/micronucleus/aberration tests
Test: CCRIS mutagenicity studies

Q: How did the mutagenic call (Test System: AMES SALMONELLA TYPHIMURIUM, Strain/Indicator: TA1535, Metabolic Activation: NONE, Method: STANDARD PLATE) turn out when `O=[N+]([O-])c1ccc2c(c1)Cc1ccccc1-2` was run?
A: inactive; negative

Q: What about the mutagenic call (Test System: AMES SALMONELLA TYPHIMURIUM, Strain/Indicator: TA1535, Metabolic Activation: RAT, LIVER, S-9, AROCLOR 1254, Method: SPIRAL ASSAY) of the same compound?
A: inactive; negative

Q: What about the mutagenic call (Test System: AMES SALMONELLA TYPHIMURIUM, Strain/Indicator: TA1535, Metabolic Activation: RAT, LIVER, S-9, AROCLOR 1254, Method: STANDARD PLATE) of the same compound?
A: inactive; negative

Q: And the mutagenic call (Test System: AMES SALMONELLA TYPHIMURIUM, Strain/Indicator: TA1537, Metabolic Activation: NONE, Method: SPIRAL ASSAY)?
A: active; positive

Q: And the mutagenic call (Test System: AMES SALMONELLA TYPHIMURIUM, Strain/Indicator: TA1537, Metabolic Activation: NONE, Method: STANDARD PLATE)?
A: active; positive

Q: What about the mutagenic call (Test System: AMES SALMONELLA TYPHIMURIUM, Strain/Indicator: TA1537, Metabolic Activation: RAT, LIVER, S-9, AROCLOR 1254, Method: SPIRAL ASSAY) of the same compound?
A: active; positive

Q: And the mutagenic call (Test System: AMES SALMONELLA TYPHIMURIUM, Strain/Indicator: TA1537, Metabolic Activation: RAT, LIVER, S-9, AROCLOR 1254, Method: STANDARD PLATE)?
A: active; positive

Q: And the mutagenic call (Test System: AMES SALMONELLA TYPHIMURIUM, Strain/Indicator: TA1538, Metabolic Activation: NONE, Method: STANDARD PLATE)?
A: active; positive

Q: And the mutagenic call (Test System: AMES SALMONELLA TYPHIMURIUM, Strain/Indicator: TA1975, Metabolic Activation: NONE, Method: PREINCUBATION)?
A: active; positive

Q: And the mutagenic call (Test System: AMES SALMONELLA TYPHIMURIUM, Strain/Indicator: YG1020, Metabolic Activation: NONE, Method: PREINCUBATION)?
A: active; positive

Q: And the mutagenic call (Test System: AMES SALMONELLA TYPHIMURIUM, Strain/Indicator: YG1024, Metabolic Activation: NONE, Method: PREINCUBATION)?
A: active; positive

Q: What about the mutagenic call (Test System: AMES SALMONELLA TYPHIMURIUM, Strain/Indicator: YG1025, Metabolic Activation: NONE, Method: PREINCUBATION) of the same compound?
A: active; positive

Q: What about the mutagenic call (Test System: AMES SALMONELLA TYPHIMURIUM, Strain/Indicator: YG1029, Metabolic Activation: NONE, Method: PREINCUBATION) of the same compound?
A: active; positive

Q: What about the mutagenic call (Test System: AMES SALMONELLA TYPHIMURIUM, Strain/Indicator: YG3001, Metabolic Activation: NONE, Method: PREINCUBATION) of the same compound?
A: active; positive

Q: What about the mutagenic call (Test System: AMES SALMONELLA TYPHIMURIUM, Strain/Indicator: YG3002, Metabolic Activation: NONE, Method: PREINCUBATION) of the same compound?
A: active; positive

Q: What about the mutagenic call (Test System: AMES SALMONELLA TYPHIMURIUM, Strain/Indicator: YG3003, Metabolic Activation: NONE, Method: PREINCUBATION) of the same compound?
A: active; positive

Q: What about the mutagenic call (Test System: AMES SALMONELLA TYPHIMURIUM, Strain/Indicator: YG7112, Metabolic Activation: NONE, Method: PREINCUBATION) of the same compound?
A: active; positive

Q: And the mutagenic call (Test System: AMES SALMONELLA TYPHIMURIUM, Strain/Indicator: YG7113, Metabolic Activation: NONE, Method: PREINCUBATION)?
A: active; positive

Q: What about the mutagenic call (Test System: CHINESE HAMSTER OVARY, Strain/Indicator: CHO-K1-BH4 (HGPRT), Metabolic Activation: RAT, LIVER, S-9, AROCLOR, Method: SUSPENSION/PLATE) of the same compound?
A: active; positive

Q: What about the mutagenic call (Test System: E. COLI, Strain/Indicator: WP2 UVRA, Metabolic Activation: HAMSTER, LIVER, S-9, AROCLOR 1254, Method: STANDARD PLATE) of the same compound?
A: inactive; negative

Q: What about the mutagenic call (Test System: E. COLI, Strain/Indicator: WP2 UVRA, Metabolic Activation: HAMSTER, LIVER, S-9, Method: STANDARD PLATE) of the same compound?
A: inactive; negative

Q: What about the mutagenic call (Test System: E. COLI, Strain/Indicator: WP2 UVRA, Metabolic Activation: MOUSE, LIVER, S-9, AROCLOR 1254, Method: STANDARD PLATE) of the same compound?
A: inactive; negative

Q: And the mutagenic call (Test System: E. COLI, Strain/Indicator: WP2 UVRA, Metabolic Activation: MOUSE, LIVER, S-9, Method: STANDARD PLATE)?
A: inactive; negative

Q: What about the mutagenic call (Test System: E. COLI, Strain/Indicator: WP2 UVRA, Metabolic Activation: NONE, Method: STANDARD PLATE) of the same compound?
A: inactive; negative

Q: And the mutagenic call (Test System: E. COLI, Strain/Indicator: WP2 UVRA, Metabolic Activation: RAT, LIVER, S-9, AROCLOR 1254, Method: STANDARD PLATE)?
A: inactive; negative

Q: And the mutagenic call (Test System: E. COLI, Strain/Indicator: WP2 UVRA, Metabolic Activation: RAT, LIVER, S-9, Method: STANDARD PLATE)?
A: inactive; negative

Q: And the mutagenic call (Test System: MOUSE LYMPHOMA, Strain/Indicator: L5178Y (TK+/TK-), Metabolic Activation: NONE, Method: SUSPENSION/PLATE)?
A: active; positive

Q: What about the mutagenic call (Test System: UDS RAT HEPATOCYTES, Strain/Indicator: THY INCORP, Metabolic Activation: NONE, Method: AUTORADIOGRAPHY (SERUM-FREE MEDIA)) of the same compound?
A: active; positive
